# Measurements from ChEMBL document CHEMBL5331086, “Natural product evodiamine-inspired medicinal chemistry: Anticancer activity, structural optimization and structure-activity relationship” (Eur J Med Chem, 2023).
# Legend:
# A549 [1] = assay: Antiproliferative activity against human A549 cells assessed as reduction in cell viability incubated for 48 hrs by MTT assay; assay type: functional, cell-based; conditions: A549, 48 h
# MDA-MB-435 [2] = assay: Antiproliferative activity against human MDA-MB-435 cells; assay type: functional, cell-based
# HCT-116 [3] = assay: Antiproliferative activity against human HCT-116 cells assessed as reduction in cell viability incubated for 48 hrs by MTT assay; assay type: functional, cell-based; conditions: HCT-116, 48 h
# HCT-116 [4] = assay: Antiproliferative activity against human HCT-116 cells; assay type: functional, cell-based
# A549 [5] = assay: Antiproliferative activity against human A549 cells; assay type: functional, cell-based
# [6] = Solubility of compound in water; assay type: physicochemical
# A549 [7] = assay: Cytotoxicity against human A549 cells assessed as reduction in cell viability measured after 24 hrs by MTT assay; assay type: functional, cell-based; conditions: A549, 24 h
# MDA-MB-435 [8] = assay: Cytotoxicity against human MDA-MB-435 cells assessed as reduction in cell viability measured after 24 hrs by MTT assay; assay type: functional, cell-based; conditions: MDA-MB-435, 24 h
# HCT-116 [9] = assay: Cytotoxicity against human HCT-116 cells assessed as reduction in cell viability measured after 24 hrs by MTT assay; assay type: functional, cell-based; conditions: HCT-116, 24 h
# MCF7 [10] = assay: Antiproliferative activity against human MCF7 cells assessed as reduction in cell viability incubated for 48 hrs by MTT assay; assay type: functional, cell-based; conditions: MCF7, 48 h
# [11] = Solubility of compound in water incubated for 24 hrs by HPLC-UV analysis; assay type: physicochemical
# HepG2 [12] = assay: Antiproliferative activity against human HepG2 cells assessed as reduction in cell viability incubated for 48 hrs by CCK-8 assay; assay type: functional, cell-based; conditions: HepG2, 48 h
# Huh-7 = assay: Antiproliferative activity against human Huh-7 cells assessed as reduction in cell viability incubated for 48 hrs by CCK-8 assay; assay type: functional, cell-based; conditions: Huh-7, 48 h
# HCCLM9 = assay: Antiproliferative activity against human HCCLM9 cells assessed as reduction in cell growth incubated for 48 hrs by CCK-8 assay; assay type: functional, cell-based; conditions: HCCLM9, 48 h
# HCT-116 [13] = assay: Antiproliferative activity against human HCT-116 cells assessed as reduction in cell viability incubated for 48 hrs by CCK-8 assay; assay type: functional, cell-based; conditions: HCT-116, 48 h
# MDA-MB-231 = assay: Antiproliferative activity against human MDA-MB-231 cells assessed as reduction in cell viability incubated for 48 hrs by CCK-8 assay; assay type: functional, cell-based; conditions: MDA-MB-231, 48 h
# SW-620 = assay: Cytotoxicity against human SW-620 cells assessed as reduction in cell viability incubated for 48 hrs by CCK-8 assay; assay type: functional, cell-based; conditions: SW-620, 48 h
# HepG2 [14] = assay: Antiproliferative activity against human HepG2 cells assessed as reduction in cell viability incubated for 24 hrs by MTT assay; assay type: functional, cell-based; conditions: HepG2, 24 h
# MCF7 [15] = assay: Antiproliferative activity against human MCF7 cells assessed as reduction in cell viability incubated for 24 hrs by MTT assay; assay type: functional, cell-based; conditions: MCF7, 24 h
# [16] = Antiproliferative activity against human HUVEC cells; assay type: toxicity, cell-based
# MCF7 [17] = assay: Antiproliferative activity against human MCF7 cells; assay type: functional, cell-based
# SF-268 = assay: Cytotoxicity against human SF-268 cells assessed as reduction in cell viability incubated for 48 hrs by MTT assay; assay type: functional, cell-based; conditions: SF-268, 48 h
# DU-145 = assay: Cytotoxicity against human DU-145 cells assessed as cell growth inhibition measured after 48 hrs by MTT assay; assay type: functional, cell-based; conditions: DU-145, 48 h
# HCT-15 = assay: Cytotoxicity against human HCT-15 cells assessed as reduction in cell viability incubated for 48 hrs by MTT assay; assay type: functional, cell-based; conditions: HCT-15, 48 h
# MCF7 [18] = assay: Cytotoxicity against human MCF7 cells assessed as reduction in cell viability incubated for 48 hrs by MTT assay; assay type: functional, cell-based; conditions: MCF7, 48 h
# NCI-H460 = assay: Cytotoxicity against human NCI-H460 cells assessed as reduction in cell viability incubated for 48 hrs by MTT assay; assay type: functional, cell-based; conditions: NCI-H460, 48 h
# Histone deacetylase 1 = Histone deacetylase 1 (Homo sapiens, UniProt Q13547); assay: Inhibition of HDAC1 (unknown origin)
# Histone deacetylase 2 = Histone deacetylase 2 (Homo sapiens, UniProt Q92769); assay: Inhibition of HDAC2 (unknown origin)
# HGC-27 = assay: Antiproliferative activity against human HGC-27 cells assessed as reduction in cell viability measured after 48 hrs by MTT assay; assay type: functional, cell-based; conditions: HGC-27, 48 h
# PC-3 = assay: Cytotoxicity against human PC-3 cells assessed as reduction in cell viability measured after 72 hrs by MTT assay; assay type: functional, cell-based; conditions: PC-3, 72 h
# MCF7 [19] = assay: Cytotoxicity against human MCF7 cells assessed as reduction in cell viability measured after 72 hrs by MTT assay; assay type: functional, cell-based; conditions: MCF7, 72 h
# A549 [20] = assay: Cytotoxicity against human A549 cells assessed as reduction in cell viability incubated for 72 hrs by MTT assay; assay type: functional, cell-based; conditions: A549, 72 h
# PC-9 = assay: Cytotoxicity against human PC-9 cells assessed as reduction in cell viability incubated for 72 hrs by MTT assay; assay type: functional, cell-based; conditions: PC-9, 72 h
# A549 [21] = assay: Cytotoxicity against human A549 cells assessed as reduction in cell viability measured after 72 hrs by MTT assay; assay type: functional, cell-based; conditions: A549, 72 h
# HCT-116 [22] = assay: Cytotoxicity against human HCT-116 cells assessed as reduction in cell viability incubated for 72 hrs by MTT assay; assay type: functional, cell-based; conditions: HCT-116, 72 h
# MDA-MB-435 [23] = assay: Cytotoxicity against human MDA-MB-435 cells assessed as reduction in cell viability incubated for 72 hrs by MTT assay; assay type: functional, cell-based; conditions: MDA-MB-435, 72 h
# Chain of Histone deacetylase 1 (Q13547 whole entry): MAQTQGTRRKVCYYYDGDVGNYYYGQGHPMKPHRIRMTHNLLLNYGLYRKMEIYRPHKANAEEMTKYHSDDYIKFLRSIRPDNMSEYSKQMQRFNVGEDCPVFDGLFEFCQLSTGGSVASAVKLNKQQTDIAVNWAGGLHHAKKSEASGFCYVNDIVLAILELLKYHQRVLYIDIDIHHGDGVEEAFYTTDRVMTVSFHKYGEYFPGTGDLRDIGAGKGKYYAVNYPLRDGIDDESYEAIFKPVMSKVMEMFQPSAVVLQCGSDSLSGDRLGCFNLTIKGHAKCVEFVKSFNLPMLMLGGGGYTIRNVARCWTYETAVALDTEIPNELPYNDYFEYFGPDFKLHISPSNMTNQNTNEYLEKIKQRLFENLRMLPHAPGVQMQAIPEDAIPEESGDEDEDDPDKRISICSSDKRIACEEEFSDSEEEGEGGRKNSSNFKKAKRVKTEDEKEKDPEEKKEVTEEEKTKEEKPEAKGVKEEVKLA
# Chain of Histone deacetylase 2 (Q92769 whole entry): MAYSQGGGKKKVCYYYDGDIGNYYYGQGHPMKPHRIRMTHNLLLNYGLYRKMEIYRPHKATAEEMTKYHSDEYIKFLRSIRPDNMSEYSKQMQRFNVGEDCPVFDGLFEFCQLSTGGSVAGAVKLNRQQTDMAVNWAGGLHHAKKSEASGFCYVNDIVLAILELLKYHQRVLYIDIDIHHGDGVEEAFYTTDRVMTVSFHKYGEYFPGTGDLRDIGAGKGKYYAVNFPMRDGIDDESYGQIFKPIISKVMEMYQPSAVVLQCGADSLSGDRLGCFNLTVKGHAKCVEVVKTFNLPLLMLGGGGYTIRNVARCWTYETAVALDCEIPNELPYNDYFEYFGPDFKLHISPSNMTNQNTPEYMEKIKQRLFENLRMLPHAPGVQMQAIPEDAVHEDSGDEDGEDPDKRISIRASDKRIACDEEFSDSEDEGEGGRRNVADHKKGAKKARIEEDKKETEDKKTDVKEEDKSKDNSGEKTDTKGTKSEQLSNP
structure (smiles),measurement,setting,value
CN1c2ccccc2C(=O)N2CCc3c([nH]c4c(Cl)cccc34)C21 (configuration not stated),IC50,A549 [1],2550 nM
same,IC50,MDA-MB-435 [2],< 3 nM
same,IC50,HCT-116 [3],< 3 nM
CN1c2ccccc2C(=O)N2CCc3c([nH]c4c([N+](=O)[O-])cc([N+](=O)[O-])cc34)C21 (configuration not stated),IC50,A549 [1],> 200000 nM
same,IC50,MDA-MB-435 [2],> 200000 nM
same,IC50,HCT-116 [3],< 200000 nM
CN1c2ccccc2C(=O)N2CCc3c([nH]c4ccc(O)cc34)C21 (configuration not stated),IC50,HCT-116 [4],< 3 nM
same,IC50,A549 [5],< 3 nM
same,solubility,[6],11 µg/mL
same,IC50,MDA-MB-435 [2],< 3 nM
CN1c2ccccc2C(=O)N2CCc3c(n(C(=O)c4ccc(Cl)cc4)c4ccc(O)cc34)C21 (configuration not stated),IC50,A549 [7],26600 nM
same,IC50,MDA-MB-435 [8],< 2 nM
same,IC50,HCT-116 [9],50 nM
CC(N)C(=O)Nc1ccc2[nH]c3c(c2c1)CCN1C(=O)c2ccccc2N(C)C31 (configuration not stated),IC50,MCF7 [10],520 nM
CN1c2ccccc2C(=O)N2CCc3c([nH]c4ccc(NS(C)(=O)=O)cc34)C21 (configuration not stated),IC50,MCF7 [10],190 nM
CN1c2ccccc2C(=O)N2CCc3c([nH]c4ccc(N)cc34)C21 (configuration not stated),solubility at 24 h,[11],10 µg/mL
same,IC50,MCF7 [10],1800 nM
O=C1c2ccccc2N(c2ccccc2)C2c3[nH]c4ccccc4c3CCN12 (configuration not stated),IC50,HepG2 [12],2390 nM
same,IC50,Huh-7,740 nM
same,IC50,HCCLM9,9820 nM
CN1c2ccccc2C(=O)N2[C@H](C(=O)Nc3ccc(C(=O)Nc4ccccc4N)cc3)Cc3c([nH]c4ccccc34)[C@@H]12,IC50,HCT-116 [13],1600 nM
CN1c2cc(N)ccc2C(=O)N2CCc3c([nH]c4ccccc34)C21 (configuration not stated),IC50,MDA-MB-231,790 nM
same,IC50,SW-620,1280 nM
Cc1ccc2[nH]c3c(c2c1)CCN1C(=O)c2ccccc2N(c2ccccc2)C31 (configuration not stated),IC50,HepG2 [12],920 nM
same,IC50,Huh-7,440 nM
same,IC50,HCCLM9,240 nM
CN1c2ccccc2C(=O)N2CCc3c(n(S(=O)(=O)c4ccc([N+](=O)[O-])cc4)c4ccccc34)C21 (configuration not stated),IC50,HepG2 [14],18400 nM
same,IC50,MCF7 [15],2680 nM
CN1c2ccccc2C(=O)N2CCc3c([nH]c4ccc(OC(=O)CCCC(=O)Oc5ccc6[nH]c7c(c6c5)CCN5C(=O)c6ccccc6N(C)C75)cc34)C21 (configuration not stated),IC50,HCT-116 [4],32 nM
same,IC50,[16],580 nM
same,IC50,A549 [5],730 nM
same,IC50,MCF7 [17],200 nM
COCCCCn1c2c(c3ccccc31)CCN1C(=O)c3ccccc3N(C)C21 (configuration not stated),IC50,SF-268,< 2000 nM
same,IC50,DU-145,< 2000 nM
same,IC50,HCT-15,< 2000 nM
same,IC50,MCF7 [18],< 2000 nM
same,IC50,NCI-H460,< 2000 nM
CN1c2ccccc2C(=O)N2CCc3c([nH]c4ccc(OC(=O)CCC(=O)Oc5ccc6[nH]c7c(c6c5)CCN5C(=O)c6ccccc6N(C)C75)cc34)C21 (configuration not stated),IC50,HCT-116 [4],32 nM
same,IC50,[16],210 nM
same,IC50,A549 [5],680 nM
same,IC50,MCF7 [17],890 nM
CN1c2ccc(NCc3ccc(/C=C/C(=O)NO)cc3)cc2C(=O)N2CCc3c([nH]c4ccc(O)cc34)C21 (configuration not stated),IC50,HCT-116 [4],180 nM
same,IC50,Histone deacetylase 1,18 nM
same,IC50,Histone deacetylase 2,230 nM
COc1ccc2c(c1)c1c(n2C(=O)c2cc(OC)c(OC)c(OC)c2)C2Oc3ccccc3C(=O)N2CC1 (configuration not stated),IC50,HGC-27,6100 nM
Cc1cc2c(s1)N(C)C1c3[nH]c4ccccc4c3CCN1C2=O (configuration not stated),IC50,PC-3,7770 nM
same,IC50,MCF7 [19],9020 nM
same,IC50,A549 [20],10400 nM
same,IC50,PC-9,9460 nM
CN1c2ccc(-c3ccnc(N4CCNCC4)c3)cc2C(=O)N2CCc3c([nH]c4ccccc34)C21 (configuration not stated),IC50,A549 [21],6800 nM
same,IC50,HCT-116 [22],5940 nM
same,IC50,MDA-MB-435 [23],2780 nM
CN1c2ccc(NCC3CCN(c4ncc(C(=O)NO)cn4)CC3)cc2C(=O)N2CCc3c([nH]c4ccc(O)cc34)C21 (configuration not stated),IC50,HCT-116 [4],230 nM
same,IC50,Histone deacetylase 1,4 nM
same,IC50,Histone deacetylase 2,5 nM
CN1c2ccc(NC(=O)CBr)cc2C(=O)N2CCc3c([nH]c4ccccc34)C21 (configuration not stated),IC50,A549 [21],154000 nM
same,IC50,HCT-116 [22],28000 nM
same,IC50,MDA-MB-435 [23],22700 nM
CN1c2ccccc2C(=O)N2CCc3c([nH]c4ccccc34)C21 (configuration not stated),IC50,HepG2 [12],21500 nM
same,IC50,Huh-7,780 nM
same,IC50,HGC-27,2280 nM
same,IC50,HCCLM9,1630 nM
